# Data as given in ChEMBL document CHEMBL1201862, “PubChem BioAssay data set” (2004).
# Activity calls are given as the source filed them.
# Tests used:
# HEK293 [1] = assay: NOD2 signaling inhibitors in MDP-stimulated cells, cell-based, uHTS, luminescence (AID 2001); type: functional; conditions: Homo sapiens
# HEK293 [2] = assay: cells; type: functional, cell-based; conditions: Homo sapiens
# HEK293 [3] = assay: cells; type: functional, cell-based; conditions: Homo sapiens; remark: listed apart in the source
# HEK293 [4] = assay: inhibition of NOD1-driven NF-kB reporter – cell-based, luminescence, uHTS, primary screen (AID 1578); type: functional; conditions: Homo sapiens
# HEK293 [5] = assay: cells; type: functional, cell-based; conditions: Homo sapiens; remark: listed apart in the source
# [6] = target: Nucleotide-binding oligomerization domain-containing protein 2 (Homo sapiens, UniProt Q9HC29); assay: inhibition of NOD2-driven NF-kB reporter – cell-based, luminescence, uHTS, HEK293 (AID 1566); type: functional
# [7] = target: Photoreceptor-specific nuclear receptor (Homo sapiens, UniProt Q9Y5X4); type: functional, cell-based;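 note: CHO-S cells with Gal4-NCOR and VP16-NR2E3 two-hybrid luciferase reporter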
# [8] = target: T1, Sentrin-specific protease 1 (Homo sapiens, UniProt Q9P0U3); assay: Dose response confirmation of small molecule inhibitors of the catalytic domain of the SUMO protease, SENP1 in a FRET assay.; type: functional; conditions: read-out: IC50_Mean
# T1 sequence (Q9P0U3 whole entry): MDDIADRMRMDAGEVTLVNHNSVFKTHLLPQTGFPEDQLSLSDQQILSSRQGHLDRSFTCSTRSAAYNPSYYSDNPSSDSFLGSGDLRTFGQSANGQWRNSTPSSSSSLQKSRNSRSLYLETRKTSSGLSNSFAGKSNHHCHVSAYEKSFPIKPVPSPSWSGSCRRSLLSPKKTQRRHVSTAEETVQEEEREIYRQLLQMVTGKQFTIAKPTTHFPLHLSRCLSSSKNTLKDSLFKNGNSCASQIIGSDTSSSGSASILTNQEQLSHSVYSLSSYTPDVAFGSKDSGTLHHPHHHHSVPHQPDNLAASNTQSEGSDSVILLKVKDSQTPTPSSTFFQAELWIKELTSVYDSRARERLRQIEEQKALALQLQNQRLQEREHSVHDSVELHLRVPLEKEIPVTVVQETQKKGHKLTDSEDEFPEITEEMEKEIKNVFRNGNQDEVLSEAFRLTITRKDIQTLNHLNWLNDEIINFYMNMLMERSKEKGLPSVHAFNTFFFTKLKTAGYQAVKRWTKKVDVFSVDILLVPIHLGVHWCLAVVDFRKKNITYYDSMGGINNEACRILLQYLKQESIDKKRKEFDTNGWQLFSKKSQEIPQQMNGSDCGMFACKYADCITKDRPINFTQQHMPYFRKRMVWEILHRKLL
# [9] = target: T1, Sentrin-specific protease 1; assay: SENP1 catalytic domain blockers, concentration series – biochemical, kinetic FRET, dose response (AID 651697); type: functional; conditions: read-out: IC50_Mean
# Estrogen receptor = target: T2, Estrogen receptor (Homo sapiens, UniProt P03372);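 note: potency for inhibiting coactivator peptide recruitment to the receptor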
# T2 sequence (P03372 whole entry): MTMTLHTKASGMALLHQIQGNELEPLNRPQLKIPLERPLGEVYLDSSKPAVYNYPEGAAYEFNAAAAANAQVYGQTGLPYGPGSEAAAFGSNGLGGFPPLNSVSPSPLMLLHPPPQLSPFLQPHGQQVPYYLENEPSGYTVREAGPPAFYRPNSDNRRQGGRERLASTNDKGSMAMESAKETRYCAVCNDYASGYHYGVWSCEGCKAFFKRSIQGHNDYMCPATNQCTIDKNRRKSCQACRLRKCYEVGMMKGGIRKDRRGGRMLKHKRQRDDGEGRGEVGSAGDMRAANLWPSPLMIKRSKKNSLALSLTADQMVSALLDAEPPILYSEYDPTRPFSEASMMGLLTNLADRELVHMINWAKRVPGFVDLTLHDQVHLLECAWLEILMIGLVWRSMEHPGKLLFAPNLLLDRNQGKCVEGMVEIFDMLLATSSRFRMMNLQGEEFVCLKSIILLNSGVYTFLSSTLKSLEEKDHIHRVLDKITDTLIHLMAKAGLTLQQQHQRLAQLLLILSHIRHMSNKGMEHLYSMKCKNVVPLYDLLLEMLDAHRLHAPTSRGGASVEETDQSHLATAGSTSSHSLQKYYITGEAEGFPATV
# [10] = fluconazole-exposed Candida albicans growth modulators – fluorescence, retest, confirmation (AID 2467); type: functional, cell-based
# [11] = NIH3T3 cell viability loss – ATP luminescence, mouse fibroblasts, counter-screen, dose response (AID 2010); type: functional, cell-based;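 note: cells exposed to compound for about 90 hours before reading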
# [12] = NIH-3T3 fibroblast cytotoxicity, dose response, cytotoxicity control, cell-based, fluorescence, Alamar Blue, secondary assay (AID 2327); type: functional;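 note: NIH-3T3 mouse fibroblasts cultured with fluconazole at 8 µg/mL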
# [13] = Trypanosoma cruzi growth suppression in host cells – NIH3T3 host cells, beta-gal luminescence, confirmation (AID 2044); type: functional, cell-based;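 note: intracellular parasites grown in NIH/3T3 mouse fibroblasts as host cells; luminescent beta-galactosidase reporter signal from transgenic T. cruzi replicating inside host cells; inhibitors lower the luminescence signal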
# Protein Wnt-3a = Protein Wnt-3a (Mus musculus, UniProt P27467); assay: antagonism of Wnt3a pathway luciferase reporter – Wnt-LIGHT cells, luminescence, selectivity assay for Gli-SUFU antagonist project, dose response (AID 651570); type: functional; conditions: read-out: IC50_Mean;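 note: Wnt-LIGHT reporter cells stimulated with conditioned medium from Wnt3a-producing cells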
# Large T antigen = Large T antigen (Simian virus 40, UniProt P03070); type: functional, Betapolyomavirus macacae;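 note: Confirmatory-stage PubChem screen for compounds that inhibit SV40 T antigen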
# [14] = target: T3, Rac GTPase-activating protein 1 (Homo sapiens, UniProt Q9H0H5); assay: blockers of MgcRacGAP-driven Rac1 GTP hydrolysis – biochemical, ADP Hunter fluorescence, primary and confirmatory, confirmation (AID 624330); type: functional
# T3 sequence (Q9H0H5 whole entry): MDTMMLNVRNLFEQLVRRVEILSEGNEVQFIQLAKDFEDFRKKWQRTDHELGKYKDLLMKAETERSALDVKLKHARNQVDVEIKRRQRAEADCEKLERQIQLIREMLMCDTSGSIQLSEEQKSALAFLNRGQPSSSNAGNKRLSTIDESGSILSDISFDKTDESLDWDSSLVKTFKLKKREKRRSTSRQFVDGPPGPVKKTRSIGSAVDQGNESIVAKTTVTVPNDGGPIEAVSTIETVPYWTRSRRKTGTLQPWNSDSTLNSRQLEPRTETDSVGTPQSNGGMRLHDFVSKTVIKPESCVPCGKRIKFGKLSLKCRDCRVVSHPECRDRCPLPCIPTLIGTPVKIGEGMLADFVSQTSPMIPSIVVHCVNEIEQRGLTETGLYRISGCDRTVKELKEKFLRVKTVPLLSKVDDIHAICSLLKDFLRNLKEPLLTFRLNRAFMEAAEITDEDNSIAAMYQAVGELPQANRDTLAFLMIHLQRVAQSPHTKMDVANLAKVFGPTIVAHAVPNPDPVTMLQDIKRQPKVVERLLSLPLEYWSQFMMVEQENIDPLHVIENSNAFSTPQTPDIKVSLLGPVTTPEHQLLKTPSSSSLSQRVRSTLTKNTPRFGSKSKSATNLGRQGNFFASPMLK
# [15] = target: T4, Heat shock factor protein 1 (Mus musculus, UniProt P38532); assay: enhancement of HSF1-driven luciferase signal – cell-based, NIH3T3, luminescence, dose retest, confirmation (AID 435004); type: functional;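 note: stress induced by proteasome inhibitor MG132 added 30 min after compound; luciferase reporter driven by HSF1 response element in NIH3T3 cells; actives raise luminescence as potentiators of the MG132 stress response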
# T4 sequence (P38532 whole entry): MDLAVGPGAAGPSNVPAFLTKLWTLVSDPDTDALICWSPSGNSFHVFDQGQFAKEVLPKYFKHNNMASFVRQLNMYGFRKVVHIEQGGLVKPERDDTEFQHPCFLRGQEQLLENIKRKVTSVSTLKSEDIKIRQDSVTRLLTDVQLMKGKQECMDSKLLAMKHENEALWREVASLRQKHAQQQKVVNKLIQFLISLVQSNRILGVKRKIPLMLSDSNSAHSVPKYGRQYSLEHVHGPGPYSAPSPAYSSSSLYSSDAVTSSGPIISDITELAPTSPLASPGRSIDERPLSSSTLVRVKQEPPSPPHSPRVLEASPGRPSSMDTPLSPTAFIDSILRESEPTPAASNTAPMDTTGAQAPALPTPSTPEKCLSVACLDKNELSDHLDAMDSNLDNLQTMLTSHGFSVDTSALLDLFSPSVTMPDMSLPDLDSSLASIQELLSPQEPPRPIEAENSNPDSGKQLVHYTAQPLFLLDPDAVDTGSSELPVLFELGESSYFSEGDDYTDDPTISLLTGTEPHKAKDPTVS
# [16] = activation of miR-122 Renilla sensor silencing – cell-based, Huh7 psiCHECK-miR122, Renilla luciferase, cherry-picked, dose response (AID 651956); type: functional;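 note: huh7 hepatoma cells stably carrying a psiCHECK-2 miR-122 sensor plasmid; renilla luciferase signal reporting endogenous miR-122 activity after 48 h compound exposure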
# Photoreceptor-specific nuclear receptor, sequence (Q9Y5X4 whole entry, the tested form may be a part): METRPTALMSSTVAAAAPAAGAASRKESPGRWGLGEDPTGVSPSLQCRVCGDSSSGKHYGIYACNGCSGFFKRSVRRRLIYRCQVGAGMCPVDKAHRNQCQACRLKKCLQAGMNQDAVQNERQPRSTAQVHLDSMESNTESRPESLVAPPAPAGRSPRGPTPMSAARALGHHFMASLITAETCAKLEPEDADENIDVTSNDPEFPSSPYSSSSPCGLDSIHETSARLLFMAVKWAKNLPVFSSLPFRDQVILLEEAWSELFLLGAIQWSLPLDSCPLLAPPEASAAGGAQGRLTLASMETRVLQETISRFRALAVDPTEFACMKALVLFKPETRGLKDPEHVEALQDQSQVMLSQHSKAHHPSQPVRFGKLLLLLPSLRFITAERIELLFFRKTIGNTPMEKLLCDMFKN
# Large T antigen, sequence (P03070 whole entry): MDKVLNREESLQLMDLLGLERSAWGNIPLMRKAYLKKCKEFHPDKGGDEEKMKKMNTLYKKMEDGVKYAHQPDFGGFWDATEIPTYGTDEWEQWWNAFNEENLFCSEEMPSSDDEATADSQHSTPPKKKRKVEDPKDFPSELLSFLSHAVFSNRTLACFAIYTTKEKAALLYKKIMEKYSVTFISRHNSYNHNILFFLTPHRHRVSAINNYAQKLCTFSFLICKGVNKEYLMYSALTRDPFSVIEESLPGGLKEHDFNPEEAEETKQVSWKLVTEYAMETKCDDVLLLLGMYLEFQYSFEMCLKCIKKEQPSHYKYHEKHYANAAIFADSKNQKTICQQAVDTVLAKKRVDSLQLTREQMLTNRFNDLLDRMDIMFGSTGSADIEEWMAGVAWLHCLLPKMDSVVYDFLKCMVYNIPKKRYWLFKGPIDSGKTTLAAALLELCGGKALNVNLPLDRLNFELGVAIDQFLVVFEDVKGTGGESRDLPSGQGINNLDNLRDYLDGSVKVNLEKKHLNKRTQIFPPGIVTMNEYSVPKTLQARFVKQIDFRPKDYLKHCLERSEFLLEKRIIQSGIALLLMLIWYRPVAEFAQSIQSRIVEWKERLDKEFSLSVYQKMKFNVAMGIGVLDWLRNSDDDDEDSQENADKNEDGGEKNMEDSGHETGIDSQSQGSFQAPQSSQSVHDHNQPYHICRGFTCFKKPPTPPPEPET
# Protein Wnt-3a, sequence (P27467 whole entry): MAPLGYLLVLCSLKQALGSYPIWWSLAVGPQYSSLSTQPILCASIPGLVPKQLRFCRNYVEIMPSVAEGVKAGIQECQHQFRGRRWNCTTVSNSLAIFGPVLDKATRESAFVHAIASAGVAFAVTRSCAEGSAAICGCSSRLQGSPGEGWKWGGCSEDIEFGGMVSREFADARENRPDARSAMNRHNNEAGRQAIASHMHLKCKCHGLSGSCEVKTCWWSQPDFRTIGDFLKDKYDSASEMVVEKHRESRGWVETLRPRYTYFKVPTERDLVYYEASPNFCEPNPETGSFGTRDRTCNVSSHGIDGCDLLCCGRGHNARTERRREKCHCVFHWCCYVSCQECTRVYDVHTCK
# Nucleotide-binding oligomerization domain-containing protein 2, sequence (Q9HC29 whole entry, the tested form may be a part): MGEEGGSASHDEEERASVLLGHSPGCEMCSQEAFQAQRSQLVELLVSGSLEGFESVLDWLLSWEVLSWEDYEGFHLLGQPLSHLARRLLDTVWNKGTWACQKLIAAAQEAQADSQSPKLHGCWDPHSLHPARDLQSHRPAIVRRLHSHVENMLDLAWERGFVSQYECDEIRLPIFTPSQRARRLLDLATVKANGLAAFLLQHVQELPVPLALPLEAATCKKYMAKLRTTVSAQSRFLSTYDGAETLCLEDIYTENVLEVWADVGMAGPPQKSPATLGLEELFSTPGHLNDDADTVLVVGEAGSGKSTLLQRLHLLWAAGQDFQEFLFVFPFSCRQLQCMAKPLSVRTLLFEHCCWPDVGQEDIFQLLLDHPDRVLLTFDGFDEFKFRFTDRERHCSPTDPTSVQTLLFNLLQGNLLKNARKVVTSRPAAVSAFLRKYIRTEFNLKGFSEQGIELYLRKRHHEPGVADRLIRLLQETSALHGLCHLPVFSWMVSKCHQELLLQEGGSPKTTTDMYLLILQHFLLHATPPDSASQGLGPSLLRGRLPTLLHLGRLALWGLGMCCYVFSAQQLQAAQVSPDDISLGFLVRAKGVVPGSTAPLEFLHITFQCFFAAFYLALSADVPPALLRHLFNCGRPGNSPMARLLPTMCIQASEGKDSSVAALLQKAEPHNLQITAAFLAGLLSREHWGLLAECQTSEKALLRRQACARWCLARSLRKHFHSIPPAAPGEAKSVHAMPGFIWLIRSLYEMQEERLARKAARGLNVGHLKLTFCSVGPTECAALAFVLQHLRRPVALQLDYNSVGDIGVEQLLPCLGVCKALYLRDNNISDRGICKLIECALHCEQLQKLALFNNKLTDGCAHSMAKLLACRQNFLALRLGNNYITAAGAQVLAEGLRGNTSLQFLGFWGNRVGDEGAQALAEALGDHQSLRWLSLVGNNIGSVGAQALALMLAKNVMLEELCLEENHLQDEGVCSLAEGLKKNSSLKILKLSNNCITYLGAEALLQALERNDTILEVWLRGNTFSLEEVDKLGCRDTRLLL
smiles,measurement,setting,value
C=CCn1c(C)cc(C(=O)COc2ccc(C)nc2[N+](=O)[O-])c1C,IC50,HEK293 [1],> 20 µM (inactive)
same,IC50,HEK293 [2],> 20 µM (inactive)
same,IC50,HEK293 [3],5.78 µM (active)
same,EC50,HEK293 [4],> 20 µM (inactive)
same,IC50,HEK293 [5],> 20 µM (inactive)
same,EC50,[6],6.96 µM (active)
same,IC50,[7],4.69 µM (active)
c1ccc(NC2=Nc3cccc4cccc2c34)cc1,IC50,[8],17.2 µM (active)
same,IC50,[9],53.8 µM (inactive)
c1ccc(CN2CCN(C3=Nc4cccc5cccc3c45)CC2)cc1,IC50,[8],7.24 µM (active)
same,IC50,[9],7.01 µM (active)
COc1ccc(NC2=Nc3cccc4cccc2c34)cc1,IC50,[8],10 µM (active)
same,IC50,[9],45.8 µM (inactive)
Cc1cccc(-n2c(SCc3cc(=O)n4ccsc4n3)nc3ccccc32)c1,IC50,[8],9.71 µM (active)
same,IC50,Estrogen receptor,> 50 µM (not active)
same,EC50,[10],2.05 µM (active)
same,EC50,[11],> 60 µM (not active)
same,EC50,[12],19.9 µM (active)
same,IC50,[9],22.3 µM (inactive)
same,EC50,[13],< 0.1 µM (active)
same,EC50,cells,0.209 µM (active)
COc1cc(S(=O)(=O)Nc2ccc3c(c2)C(=O)N(C)C3=O)ccc1NC(C)=O,IC50,[8],9.39 µM (active)
same,IC50,[9],9.06 µM (active)
O=C1N/C(=C\c2ccc(O)cc2)C(O)=C1/C=N/Cc1ccccc1,IC50,Protein Wnt-3a,7.28 µM (active)
same,IC50,Large T antigen,12.1 µM (active)
same,IC50,[14],13 µM (active)
same,IC50,[7],3.35 µM (active)
same,EC50,[15],5.35 µM (active)
CCCC#Cc1ccc2c(c1)O[C@H](CN(C)C(=O)c1ccncc1)[C@H](C)CN([C@@H](C)CO)S2(=O)=O,AC50,[16],1.06 µM (active)
CCC(=O)N1C[C@H]2[C@@H](c3ccccc31)[C@H](CO)N2C(=O)Nc1ccccc1F,AC50,[16],4.38 µM (active)
Cc1ccccc1-c1ccc2c(c1)O[C@@H](CN(C)C(=O)Nc1ccc(F)cc1)[C@@H](C)CN([C@@H](C)CO)S2(=O)=O,AC50,[16],18.5 µM (active)
